For 2 compounds, half-life, Tmax and solubility results are on record in patent publication US10780099B2, “Injectable neurosteroid formulations containing nanoparticles” (MARINUS PHARMACEUTICALS, INC., priority 2015, dated 2020).

Like-named read-outs stand apart in the source and are kept apart here.

For data set [1] the following is noted: cited from earlier work.

Consider `CC(=O)[C@H]1CC[C@H]2[C@@H]3CC[C@H]4C[C@H](O)CC[C@]4(C)[C@H]3CC[C@]12C` [Allopregnanolone, 3α,5α-tetrahydroprogesterone], for which the half-life result in data set [1] (human plasma) is reported as “about 45 minutes”.
As to `CC(=O)[C@H]1CC[C@H]2[C@@H]3CC[C@H]4C[C@](C)(O)CC[C@]4(C)[C@H]3CC[C@]12C` [Ganaxolone, 3α-hydroxy, 3β-methyl-5α-pregnan-20-one], the half-life entry in data set [1] (human plasma following oral administration) is recorded as “approximately 20 hours”. For the same compound, the Tmax entry in data set [1] (in vivo) was “short”. The solubility – broadly, the concentration that dissolves in the medium under given conditions – in the data set “Solubility in water” was less than 1 µg/mL.
